# Assay results taken from US20080269121A1, “Methods and Compositions Involving A1c Subunit of L-Type Calcium Channels in Smooth Muscle Cells” (The Board of Regents of the University of Texas System, priority 2005, published 2008).
# “Also recorded” adds a separate entry of the source.
# What was measured:
# [1] = test system: JNK/SAPK; test: MAP kinase phosphorylation: JNK/SAPK; type: cell-based
# [2] = test system: p65 subunit; test: Nuclear abundance and binding of NF-κB p65 in HCCSMC; type: cell-based, human
# Protocol: Cytoplasmic and nuclear protein, and RNA extraction: Cytoplasmic and nuclear proteins were prepared as described earlier by Shi et al. Briefly, the cells were washed twice with phosphate-buffered saline solution and then with buffer A (in mM: 10 HEPES, 1.5 MgCl2, 10 KCl, 0.5 dithiothreitol, 0.5 phenylmethylsulfrenyl fluoride [PMSF]; 10 ng/mL leupeptin, and 10 ng/mL aprotinin). The cells were resuspended in 25 μL of buffer A containing 0.25% NP-40 and incubated at 4° C. for 10 minutes. After centrifugation at 12,000 g for 10 minutes, the supernatant was collected as cytoplasmic extract. The nuclear pellet was resuspended in 20 μL of buffer C (in mM: 20 HEPES, […], 1.5 MgCl2, 0.2 ethylenediaimetetraacetic acid (EDTA), 0.5 DTT, 0.5 PMSF; 24% glycerol, 10 ng/mL leupeptin, and 10 ng/mL aprotinin) and incubated on ice with frequent vortexing for 15 minutes. The samples were centrifuged at 14,000 g for 10 minutes, and the supernatant (nuclear extract) was transferred to a fresh tube with 5 volumes of buffer D (in mM: 20 HEPES, 0.2 EDTA, 50 KCl, 0.5 DTT, 0.5 PMSF; 20% glycerol, 10 ng/mL leupeptin, and 10 ng/mL aprotinin). The protein concentration was determined by using the Bio-Rad assay kit (Bio-Rad Laboratories, Hercules, Calif.).
# Electrophoretic mobility shift assay. […]
# [3] = test system: human colonic circular muscle strips; test: Muscle bath: contractile response of human colonic circular muscle strips; type: cell-based
# Protocol: Muscle bath experiments. Pure circular muscle strips (2 mm×10 mm) are prepared from resected human colon segments. The strips are mounted in 5 ml baths filled with carbonated Krebs solution (in mM: 118 NaCl, 4.7 KCl, 2.5 CaCl2, 1 NaH2PO4, 1-2 MgCl2, 11 D-glucose, and 25 NaHCO3) at 37° C. (Siebenlist et al., 1994; Barnes and Karin, 1997). The muscle strips are equilibrated for 1 h at 1 g tension and then stretched until maximal response is obtained to 10^−4 m ACh. The bathing solution is replaced every 15 min. Contractions are measured by force transducers and analyzed by DATAQ (Akron, Ohio) software.
# The protocol for transfection of sense and antisense oligonucleotides in freshly obtained muscle strips was similar to that in HCCSMC. The circular muscle layer was isolated from the fall thickness human colon, and sliced into 2 mm×10 mm muscle strips. The strips were incubated in RPMI 1640 without serum. The sense and antisense oligonucleotides (10 μM) were added into the medium for 24 h before incubation with 20 ng/mL TNFα for 24 h.
# [4] = test system: α1C1b promoter; test: α1C1b promoter luciferase reporter activity in HCCSMC; type: cell-based, human
# Protocol: Transient cell transfections and luciferase activity. FuGENE 6 (Roche, Mannheim, Germany) is used to transfect luciferase-expressing pGL2 constructs in HCCSMC. The cells in passage 4 are seeded into 12-well plates (Costar, Acton, Mass.) and grown to 70% to 80% confluency. Transfections are carried out by incubation of cells in each well with 1.5 μl of FuGENE 6, 0.5 μg of pGL2 construct, and 0.125 μg of pSEAP2 Control Vector (BD Biosciences Clontech, Palo Alto, Calif.) for 24 h as per manufacturer's instructions. The pSEAP2 Control Vector is co-transfected for normalization of data. The transfected cells were treated with stimulus or medium control and harvested after 24 hours. Twenty μl of the supernatant of the cell lysates are taken for the measurement of luciferase activity by a luminometer (Promega, Madison, Wis.). The SEAP activity is measured with a Clontech SEAP detection kit by following the manufacturer's instructions.
# Promoter constructs, 5′-deletions, and site-directed mutagenesis. The promoter constructs of hα1c1b are prepared by PCR amplification of human genomic DNA (Roche, Indianapolis, Ind.) and digested partially with Hind III (Promega, Madison, Wis.) using the FailSafe PCR kit (Epicentre, Madison, Wis.). The PCR product is subcloned into pDrive Cloning Vector with the PCR Cloning^plus kit (Qiagen, Valencia, Calif.) and SURE 2 supercompetent cells (Stratagene, La Jolla, Calif.) and subsequently transferred to the luciferase expression plasmid pGL2-Basic Vector (Promega, Madison, Wis.). The deletion constructs are made using the full length promoter construct as a template in PCR reactions. The same methods and kits are used to subclone the sequenced PCR products into the pDrive and pGL2 vector. The site-directed mutagenesis is carried out using QuikChange® II XL Site-Directed Mutagenesis Kit from Stratagene (La Jolla, Calif.), as per manufacturer's instructions.
substance,measurement,setting,value
vasoactive intestinal polypeptide [VIP],phosphorylation of JNK/SAPK,[1],time-dependently dephosphorylated
same,"abundance of p65 in the nucleus, VIP and TNFα versus TNFα alone",[2],did not seem to be different
same,effect on TNFα suppression of contractile response to ACh,"[3]; muscle strips, treatment before/with TNFα",significantly reduces the suppression; also recorded: partially reversed the suppression
same,contractile response of circular muscle strips to ACh,"[3]; strips incubated 24 h, organ bath",enhanced the contractile response to ACh and KCl; also recorded: increased their contractile response to ACh; also recorded: enhanced it
same,α1C1b promoter reporter (luciferase) activity,[4]; substance by itself,enhanced in a concentration-dependent manner; also recorded: concentration-dependently increased; also recorded: enhanced promoter activity in normal cells
same,effect on suppression of α1C1b promoter activity by TNFα,[4]; with TNFα,significantly blocked this reduction; also recorded: partially blocked the suppression
